Measurements from article PMC6529808 (Metallomics : integrated biometal science, 2018).

Target: MhuDCH (Mycobacterium tuberculosis, UniProt P9WKH3)
Format: binding
Conditions: second site (MhuD-diheme); 5 μM protein, 50 mM Tris pH 7.4, 150 mM NaCl

Sequence of MhuDCH (P9WKH3 whole entry): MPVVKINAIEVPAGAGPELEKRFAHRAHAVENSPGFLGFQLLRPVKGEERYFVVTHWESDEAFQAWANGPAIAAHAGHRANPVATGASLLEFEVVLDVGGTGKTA

C=CC1=C(C)C2=Cc3c(C=C)c(C)c4[n]3[Fe][n]3c(c(C)c(CCC(=O)O)c3=CC3=NC(=C4)C(C)=C3CCC(=O)O)=CC1=N2 [heme]
Kd2: 3.3 ± 1.1 µM
